Assays:
HepG2 cells [1] = assay: Dot blot array expression assay; conditions: 24 hr, two-fold threshold
Experimental: The quality of the PCR reactions was assessed by agarose gel electrophoresis. Human genomic DNA (Clontech) and PCR products were robotically dotted in 100 nl aliquots onto positively-charged nylon membranes using the BioDot instrument (Cartesian Technologies, Inc.). After uv-crosslinking, the membranes were rinsed in 2× SSC and allowed to air-dry. Prior to addition of labeled cDNA probes, membranes were washed in boiling 1% SDS, rinsed with 6× SSC, and incubated in 5 mL of 42° C. Microhyb solution (Research Genetics) for 2 hr. Ten minutes prior to addition of the probes, the Microhyb solution was replaced with an equal amount of fresh 42° C. Microhyb solution containing denatured human Cot-1 DNA (Gibco BRL) and poly(dA) primer (Research Genetics) (both at final concentrations of 1 ng/μl).
For each reverse transcription reaction, 2 μg of mRNA was incubated with oligo(dT) primer (200 ng/μl) at 70° C. for 10 minutes. Tubes were chilled and spun briefly. The following reagents (with the final concentrations in parentheses) were added: first strand buffer (1×), DTT (10 mM), dNTP mix (1 mM each of dATP, dGTP, dTTP), [α-^33P]dCTP (3.3 μCi/μl) and Superscript II Reverse Transcriptase (10 units/μL). The samples were kept at 37° C. for 1.5 hr. Unincorporated nucleotides were removed by spinning the reaction mixture through a G-50 column. […] Probe quality was assessed by electrophoresis on a 10% denaturing polyacrylamide minigel. Denatured probes were added directly to the Microhyb solution and hybridized overnight at 42° C. Membranes were washed twice under each of the following conditions: (1) 2× SSC/0.1% SDS at room temperature, 5 min; (2) 0.2× SSC/0.1% SDS at room temperature, 5 min; (3) 0.2× SSC/0.1% SDS at 42° C., 15 min, (4) 0.1× SSC/0.1% SDS at 68° C., 15 min. Membranes were then rinsed briefly in 2× SSC at room temperature, covered with Saran wrap, and exposed to storage phoshpor screens. After three days, screens were scanned using a Storm phosphorimager (Molecular Dynamics). Images were analyzed using ImageQuant software (Molecular Dynamics).
We employed a rapid dot blot assay as a secondary screen for gene expression changes. We tested each of the unique clones against each of the three treatments. […] For these clones, the dot blot assay functioned not as a confirmation assay but as an initial screen for differential expression. Dot blots were prepared by robotically arraying subclone-derived PCR products in quadruplicate onto positively charged nylon membranes. […] In general, each dot consisted of over 80 ng of PCR product, as estimated by inspection of the PCR reactions run on agarose gels. This high quantity of DNA ensured that saturation of spots, with consequent loss of quantitation, would not occur. Spots of genomic DNA were included on each filter to allow normalization between control and treated sample intensities.

HepG2 cells [2] = assay: BrdU incorporation cell proliferation assay; format: cell-based; conditions: Homo sapiens
Experimental: HepG2 cells (see e.g., Aden et al., Nature 282:615-616 (1979)) (ATCC HB-8065) were maintained in DMEM/F-12 medium with 10% fetal bovine serum and 1% antibiotic/antimycotic. For routine culturing and mRNA preps, cells were grown in 75 cm^2 flasks and split every 4-5 days. For plate assays, cells were plated in 96-well microtiter plates at 1×10^5 cells per well in 100 μl of growth medium.
Depending on the desired exposure time, cell treatments began 3 or 4 days after splitting or plating. At this time, the cells were near or at confluency. […] Cell treatments were at 37° C.
Uptake of 5-bromo-2′-deoxyuridine (BrdU) was measured using the Cell Proliferation ELISA kit from Boehringer-Mannheim (Indianapolis, Ind.).
Cell proliferation assays based on measurement of BrdU incorporation were performed according to the manufacturer's instructions (Boehringer Mannheim “Cell Proliferation ELISA Kit”).

HepG2 cells [3] = assay: cDNA array (GF200) expression profiling; format: cell-based, human; conditions: 20 mM acetaminophen, 16 mM caffeine, 100 mM thioacetamide
Experimental: Cells were grown in DMEM/F12 medium with 10% fetal bovine serum in tissue culture flasks for 3 days following splitting, at which time they were at or near confluency. […] For each treated sample, an untreated control flask was set up with the same medium. Following the treatment period, mRNA was isolated by affinity purification on oligo(dT) cellulose resin using the Poly(A) Pure mRNA isolation kit from Ambion. RNA quality was assessed by agarose gel electrophoresis, and yields were determined by absorbance at 260 nm.
Radiolabeled cDNA for array hybridizations were prepared as follows. To a solution of 2 μg of RNA in 8 μl DEPC-treated water was added 2 μl of 1 μg/μl oligo(dT) (10-20 mer mixture, Research Genetics). After incubation for 10 min at 70° C., the solution was chilled on ice for 2 min, and then added to 6 μl of 5× first strand buffer (250 mM Tris-HCl (pH 8.3), 375 mM KCl, 15 mM MgCl2; Gibco-BRL), 1 μl of 0.1M DTT, 1.5 μl dNTP mix (20 mM each dATP, dGTP and dTTP), 10 μl of 10 mCi/ml [α-^33P]dCTP (1000 Ci/mmol, Amersham), and 1.5 μl of 200 U/μl reverse transcriptase (Superscript II, Gibco-BRL). Following a 90 min incubation at 37° C., cDNA targets were purified by passage through G-50 Sephadex spin columns (Pharmacia) or Bio-Spin 6 columns (BioRad).
GF200 cDNA arrays (Research Genetics) were washed in 0.5% boiling SDS for 5 min and prehybridized for 3 hrs at 42° C. in 5 ml MicroHyb solution (Research Genetics) containing 5 μl of 1 μg/ml poly(dA) (Research Genetics) and 5 μl of 1 μg/ml human Cot-I DNA (Gibco-BRL) that was denatured for 3 min at 100° C. prior to use. Labeled target nucleic acids, boiled for 3 min, were added directly, and hybridization was allowed to proceed for 16-18 hr at 42° C. in roller bottles in hybridization ovens. Arrays were washed twice in 2× SSC, 1% SDS at room temperature for 2 min, and then twice in 0.5× SSC, 1% SDS at 65° C. for 20 min. Arrays were exposed to storage phosphor screens for 3 days and scanned using a phosphorimager (Molecular Dynamics). Arrays were stripped for reuse by placing in boiling 0.5% SDS and then incubating for 1.5 hr with shaking at room temperature, allowing to solution to cool. After stripping, arrays were exposed to storage phosphor screens overnight to confirm loss of signal.
Spot intensities were determined using Pathways software (Research Genetics). Data from quadruplicate sets of hybridizations were normalized by local regression using NLR software (Tom Kepler, North Carolina State University). Cluster analysis was carried out using the Clustan Graphics software package from Clustan Limited (Edinburgh).

Q: How did the “Number of 27 unconfirmed or non-matching clones showing an expression change” value (HepG2 cells [1]) turn out when `Cn1c(=O)c2c(ncn2C)n(C)c1=O` [caffeine] was run?
A: 7

Q: And the inhibition at 16000 µM (HepG2 cells [2]; HepG2, 24 h, read-out: Inhibition of BrdU uptake (cell proliferation))?
A: 67 to 80%

Q: And the IC50 (HepG2 cells [2]; HepG2, read-out: IC50, BrdU incorporation in HepG2 cells)?
A: ~6 mM

Q: And the “Number of genes with statistically significant (p<0.05) change in expression in three or more adjacent time points” value (HepG2 cells [3]; 1 to 24 hr time course)?
A: 158

Q: What about the “Global differential gene expression (rms) over time” value (HepG2 cells [3]; 1 to 24 hr) of the same compound?
A: few changes until 6 hr, after which overall differential expression is fairly constant
